Laboratory results: patent US20120100204A1, “TGF-Beta Stimulating Agent Compositions and Combinations” (TCP INNOVATIONS LTD, priority 2007, published 2012)
Marks after values point to notes of the source that are not given here.

Assays:
TGF-beta activity = TGF-beta activity by effect on SMC proliferation (CPD) with and without neutralising anti-TGF-beta antibody; assay type: cell-based, human; conditions: 0 μM T, 72 hrs
Protocol: (1995) Cardiovasc. Res. 29:848-55). […] The cells were then incubated for either 24 hrs or 72 hrs depending on the experiment. All treatment conditions were established in triplicate. Finally, TGF-beta activity was estimated by the direct effects on smooth muscle cell proliferation within the assay. For these experiments, the test agents were added, in triplicate, to cells both in the presence and absence of a neutralising antibody to TGF-beta (AB-100-NA; […] R&D Systems). After 72 hrs incubation, the cells are washed and then released completely using 0.02% trypsin/EDTA (Gibco) at 37° C. for 10 mins, then counted manually using a haemocytometer. Importantly, the number of cells at 0 hrs must also be determined (using the same counting method, on a replicate set of three wells plated out specifically for the purpose). For each treatment condition, the TGF-beta-dependent inhibition of proliferation is expressed as the fold increase in the cumulative population doubling time in the absence of the neutralising antibody compared to the cumulative population doubling time in the presence of the neutralising antibody. […] Failure of either control led to the repeat of the experiment.

[1] = system: anti-carbohydrate antibodies; assay: anti-carbohydrate antibody isotype profile in serum of men with coronary artery disease, direct ELISA; assay type: in vivo, human; conditions: 3 months
Protocol: Blood samples were also taken at baseline, immediately prior to beginning the drug treatments, and also after 90 days. The blood was drawn from the antecubital fossa using 19-gauge butterfly needles, and dispensed into polypropylene tubes, where it was allowed to clot for between 2 and 3 hours at room temperature. The clot was released, and the sample spun (450×g; 4 mins), and the serum supernatant removed, aliquoted and stored frozen at −80° C. until analysed.
The level of anti-carbohydrate antibodies was measured by direct ELISA as previously described (Mosedale et al (2006) J. Immunol. Meth. 309:182-91). Briefly, Maxisop 96-well plates were coated with BSA-alpha-Gal (Glycorex) at 1 μg/well in 200 μl of Sodium Carbonate pH9.0 overnight at 4° C. After three quick washes with PBS, non-specific binding was blocked using 3% BSA in PBS at room temperature for 1 hour. After three further washes the serum was added at various dilutions ranging from neat to 1:100 dilution in PBS, then incubated for 2 hours at room temperature with shaking. The serum was then discarded, the plate washed 5 further times with PBS+0.1% Tween-20, and replicate strips (each containing a full range of dilutions of the same serum sample) were exposed to highly specific monoclonal antibodies to each isotype, including IgG1, IgG2, IgG3, IgG4, IgM, IgA, IgE and IgD, at 1 μg/ml in blocking buffer. After a further hour at room temperature with shaking, the antibody was discarded and the plate washed 3 further times with PBS/Tween, before being exposed to donkey anti-mouse IgG minimum cross reactivity, coupled to horseradish peroxidase (Jackson Immunoresearch), at 1 μg/ml in blocking buffer for a further 1 hour at room temperature with shaking. After a final 3 washes in PBS/Tween and single wash in PBS, 200 μl of K-blue chromogenic substrate was added to each well. After a carefully controlled period, accurate to 5 seconds, equal for all wells, the reaction was stopped by the addition of 50 μl 2M HCl and the colour read at 450 nm. Results are reported for each isotype as the mean titre (that is, the dilution of serum which yielded 50% of the maximal signal) as well as the mean signal at that titre (since the maximum absorbance in many cases was considerably below full scale deflection).
Blood samples were also taken at baseline, immediately prior to beginning the drug treatments, and also after 90 days, and serum prepared exactly as in Example 5. The level of anti-carbohydrate antibodies was then measured by direct ELISA using the procedure given in Example 5.

[2] = system: anti-collagen type II antibodies; assay: direct ELISA for anti-collagen type II antibodies in serum of collagen-induced arthritis mice; assay type: in vivo; conditions: day 39
Protocol: Collagen-induced arthritis was induced in adult male DBA/1 mice as previously described (Courtenay et al. (1980) Nature 283:666-8). Adult (12 week old) male DBA/1 mice were divided into groups of six animals. Mice received 100 μg per mouse of bovine type II collagen (Sigma) in Freunds Complete Adjuvant (FCA) by the subcutaneous route, while a control group received an identical injection of type I collagen in FCA. Twenty-one days later, all groups of mice received an intraperitoneal booster injection containing 100 μg per mouse of the same collagen type as previously, but in the absence of adjuvant. […] Foodpad thickness was determined each day using a digital caliper EC1507 (Moore & Wright) accurate to 0.01 mm. The thickness of each footpad was determined three times on each day by a single operator blind to the treatment condition of the mouse, and the footpad thickness of each mouse on each day was reported as the mean for the three measurements for all four paws. Errors represent the standard error of the mean among the six animals in each group.
A direct ELISA for anti-collagen type II antibodies was used as an alternative assessment of the autoimmune response. Bovine type II collagen was coated onto Maxisorp 96-well ELISA plate wells (Nunc) at 1 μg/well in 50 μl of 50 mM sodium carbonate pH9.0 for 2 hours at 4° C. Wells were blocked with 5% Tween-20/5% sucrose in phosphate-buffered saline for 1 hour at room temperature. Mouse serum at various dilutions was incubated with the collagen-coated wells for 2 hours at room temperature. After three quick washes with tris-buffered saline +0.05% Tween-20, bound murine antibody was detected using a range of different anti-mouse IgG peroxidase conjugates (Pan-IgG A-9174 Sigma Chemical Co; IgA A-4789 Sigma Chemical Company; IgG1, G2a, G2b and G3 Southern Biotechnology) at 1:5000 dilution in tris-buffered saline +0.05% Tween-20 for 1 hour at room temperature. After three further washes, bound peroxidase label was visualised with K-BLUE chromogenic substrate (Skybio, Ltd.) for 20 minutes at room temperature, and the concentration of murine anti-collagen IgG in the serum quantitated by interpolating a standard curve constructed using known concentrations of the murine monoclonal anti-collagen type II IgG, CIICI (NIH Developmental Studies Hybridoma Bank).

[3] = pro-thrombin time (PTT) in men with coronary artery disease; conditions: men with coronary heart disease, 3 months, Tamoxifen 20 mg once daily, vs baseline
Protocol: Patients continued with all other medications (statins, ACE inhibitors, beta blockers, calcium channel blockers, diuretics etc), but no patients were taking warfarin or tirofiban.
The coagulant status of the individuals was assessed using the pro-thrombin time (PTT, measured clinically; Hinchingbrooke Hospital, UK). PTT was measured twice, one week apart, prior to beginning the study, and then after 90 days treatment. In each case, each patient acted as their own control, and the impact of the treatment on PTT was assessed using a paired Student's t-test comparing the PTT at 90 days with the average of the two baseline determinations.

[4] = Tamoxifen 20 mg once daily, aspirin 75 mg once daily, mean ± SD
[5] = neat serum, Tamoxifen 20 mg once daily, aspirin 75 mg once daily, mean ± SD

SMILES: CC(=O)Oc1ccccc1C(=O)O [Aspirin, acetylsalicylic acid]
- TGF-beta activity: ratio of CPD in the absence and presence of neutralising anti-TGF-beta antibody (TGF-beta activity; 10 μM A): 1.05 ± 0.09 fold
- TGF-beta activity: ratio of CPD in the absence and presence of neutralising anti-TGF-beta antibody (TGF-beta activity; 33 μM A): 1.13 ± 0.17 fold
- TGF-beta activity: ratio of CPD in the absence and presence of neutralising anti-TGF-beta antibody (TGF-beta activity; 100 μM A): 1.25 fold
- TGF-beta activity: ratio of CPD in the absence and presence of neutralising anti-TGF-beta antibody (TGF-beta activity; 100 μM A, listed as A): 1.25 ± 0.06 fold

SMILES: CC/C(=C(\c1ccccc1)c1ccc(OCCN(C)C)cc1)c1ccccc1 [Tamoxifen]
- IgA titre, change versus baseline [1, 4]: +14% ± 52%
- IgD titre, change versus baseline [1, 4]: −234% ± 113%
- IgG2 titre, change versus baseline [1, 4]: +176% ± 43%
- IgM titre, change versus baseline [1, 4]: +16% ± 28%
- absorbance of the IgA class anti-carbohydrate antibodies (in words) ([1]; Example 6): statistically significantly increased
- titre of IgD class anti-carbohydrate antibodies (in words) ([1]; Example 6): statistically significantly reduced
- titre of the IgG2 class anti-carbohydrate antibodies (in words) ([1]; Example 6): statistically significantly increased
- IgA Absorbance, change versus baseline [1, 5]: 0.31 ± 0.17
- IgD Absorbance, change versus baseline [1, 5]: −0.82 ± 0.51
- IgG2 Absorbance, change versus baseline [1, 5]: +0.61 ± 0.17
- IgM Absorbance, change versus baseline [1, 5]: −0.29 ± 0.36
- Pan IgG binding to bovine collagen II, median concentration in serum ([2]; DBA/1 mice with collagen-induced arthritis): 181 µg/mL
- IgG1 binding to bovine collagen II, median absorbance ([2]; neat serum): <0.05*
- IgG2a binding to bovine collagen II, median absorbance ([2]; neat serum): 0.081*
- IgG2b binding to bovine collagen II, median absorbance ([2]; neat serum): 0.482*
- IgG3 binding to bovine collagen II, median absorbance ([2]; neat serum): 0.069*
- change in pro-thrombin time ([3]; Example 5, aspirin 75 mg once daily): +17%
- change in pro-thrombin time ([3]; Example 6, clopidogrel 75 mg once daily): +19%
